Measured values: publication PMC10797628
Changes are numbered by the printed parent chain.

Legend:
Y5.38A 5-HT1A receptor = biological target: T1, Y5.38A 5-HT1A receptor (Homo sapiens, UniProt P08908, Y195A); test: cAMP accumulation in HEK293T cells, Y5.38A 5-HT1A; assay type: cell-based; set-up: mutated in house (Quikchange II) HTR01A0000; host or cells: HEK293T; conditions: point-mutated receptor, 3 independent experiments, read-out: pEC50 5-HT1A Receptor Y5.38A (converted)
T1 sequence (P08908 1-422 Y195A): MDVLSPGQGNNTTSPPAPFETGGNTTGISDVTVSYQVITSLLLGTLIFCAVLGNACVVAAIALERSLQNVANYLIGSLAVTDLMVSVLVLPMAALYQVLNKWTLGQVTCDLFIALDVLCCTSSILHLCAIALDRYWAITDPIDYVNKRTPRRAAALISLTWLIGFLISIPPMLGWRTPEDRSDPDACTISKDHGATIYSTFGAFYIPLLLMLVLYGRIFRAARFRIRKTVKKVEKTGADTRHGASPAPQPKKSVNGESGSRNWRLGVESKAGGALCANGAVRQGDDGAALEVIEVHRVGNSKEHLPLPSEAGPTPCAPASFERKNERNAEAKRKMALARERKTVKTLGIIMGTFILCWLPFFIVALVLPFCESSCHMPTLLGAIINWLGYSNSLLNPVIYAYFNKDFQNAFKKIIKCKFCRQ
Description: (§1) Briefly, cells transfected with the desired receptor construct and compounds were incubated in the dark for 90 min at 37 °C. After incubation, cAMP detection reagents were added, and TR-FRET was used to quantify the cAMP produced.
(§2) The functional activity of compounds was determined by stimulating cells expressing the desired receptor with FSK and test compound in parallel with 12 known concentrations of cAMP. The known concentrations of cAMP were used to create a standard curve for each experiment that was used to interpolate the unknown values of cAMP in wells with test compounds. […] The EC50 and EMAX values were determined using the “dose response – log[agonist] vs response (three parameter)” nonlinear regression model in Prism and transformed to pEC50 values, reported as mean ± SD.
(§3) Summary of functional assay conditions at various 5-HT1 receptor point mutation constructs.

S5.42A 5-HT1A receptor = biological target: T2, S5.42A 5-HT1A receptor (Homo sapiens, UniProt P08908, S199A); test: Radioligand binding, S5.42A 5-HT1A
T2 sequence (P08908 1-422 S199A): T1 sequence (P08908 1-422 Y195A) with A195Y, S199A
Description: (§4) 48 hours after transfection with the desired receptor construct, cells were isolated for saturation and competition binding assays as previously described.[47],[48],[57] Saturation and competition radioligand binding assays were conducted in an assay buffer consisting of 50 mM Tris HCl, 10 mM MgCl2, and 0.1 mM EDTA in filtered deionized water. […] Briefly, 5–10 μg of the receptor protein, as determined by a Thermo Fisher Pierce BCA protein assay kit, was incubated with 8 concentrations of radioligand in triplicate to determine total binding. […] Nonspecific binding was determined as above for saturation assays.
(§5) For radioligand binding data, nonspecific binding was subtracted from the total binding to get specific binding. Saturation binding data was fit to the “binding saturation-specific binding with hill slope” model. Competition binding data were fit to the “binding competition-one-site fit Ki” non-linear regression model and transformed to pKi values, reported as mean ± SD.
(§6) is 50 mM Tris HCl, 10 mM MgCl2 and 0.1 mM EDTA in filtered deionized water.

Y5.38F 5-HT1A receptor = biological target: T3, Y5.38F 5-HT1A receptor (Homo sapiens, UniProt P08908, Y195F); test: cAMP accumulation in HEK293T cells, Y5.38F 5-HT1A; assay type: cell-based; set-up: mutated in house (Quikchange II) HTR01A0000; host or cells: HEK293T; conditions: point-mutated receptor, 3 independent experiments, read-out: pEC50 5-HT1A Receptor Y5.38F (converted)
T3 sequence (P08908 1-422 Y195F): T1 sequence (P08908 1-422 Y195A) with A195F
Description: as §1, §2, §3

N7.39T 5-HT1A receptor = biological target: T4, N7.39T 5-HT1A receptor (Homo sapiens, UniProt P08908, N386T); test: Radioligand binding, N7.39T 5-HT1A
T4 sequence (P08908 1-422 N386T): T1 sequence (P08908 1-422 Y195A) with A195Y, N386T
Description: as §4, §5, §6

V3.33I 5-HT1A receptor = biological target: T5, V3.33I 5-HT1A receptor (Homo sapiens, UniProt P08908, V117I); test: Radioligand binding, V3.33I 5-HT1A
T5 sequence (P08908 1-422 V117I): T1 sequence (P08908 1-422 Y195A) with V117I, A195Y
Description: as §4, §5, §6

| Structure (SMILES) | EC50 (Y5.38A 5-HT1A receptor) | Ki (S5.42A 5-HT1A receptor) | EC50 (Y5.38F 5-HT1A receptor) | Ki (N7.39T 5-HT1A receptor) | Ki (V3.33I 5-HT1A receptor) |
| --- | --- | --- | --- | --- | --- |
| CN(C)[C@H]1CCc2c(cccc2-c2cccc3ccccc23)C1 [(S)-NAP] | 4.68 µM | 0.0631 µM | 0.38 µM | 0.0661 µM | 0.0631 µM |
| Fc1ccccc1-c1cccc2c1CC[C@H](N1CCCC1)C2 [(S)-PFPT] | 0.00204 µM | 0.00148 µM | 0.00209 µM | 0.00851 µM | 0.00813 µM |
